Values of other authors in publication PMC6819114, “Peptide-conjugated oligonucleotides evoke long-lasting myotonic dystrophy correction in patient-derived cells and mice” (The Journal of Clinical Investigation, 2019).

Excerpt: Among strategies to improve delivery of ASOs in DM1 skeletal muscles, cell-penetrating peptide conjugates offer an attractive avenue ([22]–[24]). Indeed, systemic administration of advanced Pip6a peptides conjugated with splice-switch oligonucleotides has shown promising results in DMD mice by restoring a truncated but functional dystrophin ([25]). Pip6a is a cell-penetrating peptide composed of a hydrophobic core region flanked on each side by arginine-rich domains containing β-alanine and aminohexanoyl spacers. This peptide sequence has the ability to deliver associated cargoes across the pl ...

Ac-(RXRRBRRXRYQF LIRXRBRXRB)-CO OH [Pip6a, arginine-rich cell-penetrating peptide: hydrophobic core flanked by arginine-rich domains containing β-alanine and aminohexanoyl spacers]
stability to serum proteolysis: stable
